Structures are written as SMILES.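 Assay format: 96-well plates, 48-hour exposure. Abbreviation: GI50, concentration required for 50% inhibition of growth.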 Activity calls are given as the source filed them. No stated cut-off is given here; in the data, active = GI50 up to about 1.1 µM and inactive = higher.

Test systems include 786-0; A549; ACHN; COLO 205; HCT-116; HOP-62; HT-29; IGROV-1; MCF7; NCI-H226; NCI-H23; NCI-H460; OVCAR-3; PC-3; RPMI-8226; RXF 393; SF-539; SK-MEL-2; TK-10; LOX IMVI.
Experiment in all cases: inhibition of tumour cell growth, NCI panel, 48 h

Take `N#Cc1c(NC(=O)CCC(=O)O)ccc2ccccc12`: the GI50 with 786-0, in the assay on A549, with ACHN, with COLO 205, in the assay on HCT-116 and in the assay on HOP-62 was > 100 µM (inactive) in each case. For the same compound, the GI50 in the assay with HT-29, in the assay on IGROV-1, in the assay on MCF7, in the assay on NCI-H226, in the assay with NCI-H23 and with NCI-H460 was > 100 µM (inactive) each time. Also, the GI50 in the assay on OVCAR-3, with PC-3, with RPMI-8226, in the assay with RXF 393, with SF-539 and in the assay with SK-MEL-2 was > 100 µM (inactive) throughout. Also, the GI50 in the assay on TK-10 is > 100 µM (inactive).
As for `CC(=O)OCc1cc(=O)n2c([nH]c3ccccc32)c1C#N`, the GI50 was 40.6 µM (inactive) in the assay on 786-0; 51.9 µM (inactive) in the assay on A549; 52.4 µM (inactive) in the assay on ACHN; 53.3 µM (inactive) with COLO 205; 51.3 µM (inactive) in the assay with HCT-116; 79.4 µM (inactive) in the assay with HT-29. Further, the GI50 in the assay on IGROV-1 was 55 µM (inactive); in the assay on LOX IMVI, 68.7 µM (inactive); in the assay with MCF7 it was > 100 µM (inactive); in the assay with NCI-H226, > 100 µM (inactive); with NCI-H23 it was > 100 µM (inactive); with NCI-H460, 18.6 µM (inactive). Further, the GI50 was 43.2 µM (inactive) in the assay with OVCAR-3; 40.6 µM (inactive) with PC-3; 59.3 µM (inactive) with RXF 393; > 100 µM (inactive) with SF-539; 76.6 µM (inactive) in the assay on SK-MEL-2; 82.4 µM (inactive) in the assay on TK-10.
Turning to `CCOC(=O)C1(C)CCCc2sc(N)c(C#N)c21` (configuration not stated), the GI50 in the assay on 786-0, with A549, in the assay with ACHN, in the assay with COLO 205, in the assay with HCT-116 and in the assay with HOP-62 was > 100 µM (inactive) each time. The GI50 with HT-29, in the assay on IGROV-1, in the assay with MCF7, in the assay on NCI-H226, in the assay on NCI-H23 and with NCI-H460 was > 100 µM (inactive) each time. Besides, the GI50 in the assay on PC-3, in the assay with RPMI-8226, in the assay on RXF 393, with SK-MEL-2 and in the assay on TK-10 was > 100 µM (inactive) each time.
As for `COC(=O)N1CC(=O)C(C(=O)NC23CC4CC(CC(C4)C2)C3)C1` (configuration not stated), the GI50 is 33.3 µM (inactive) in the assay on 786-0; > 100 µM (inactive) with A549; 74.3 µM (inactive) with ACHN; 62.1 µM (inactive) with COLO 205; 64.6 µM (inactive) with HCT-116; 78.9 µM (inactive) in the assay with HT-29. The GI50 was > 100 µM (inactive) in the assay on IGROV-1; 45.3 µM (inactive) in the assay with MCF7; > 100 µM (inactive) in the assay on NCI-H226; > 100 µM (inactive) with NCI-H23; 78.7 µM (inactive) in the assay on NCI-H460; > 100 µM (inactive) in the assay with OVCAR-3. The GI50 is 52 µM (inactive) in the assay with PC-3; 32.8 µM (inactive) with RPMI-8226; 82 µM (inactive) in the assay on RXF 393; 72.9 µM (inactive) in the assay with SF-539; 77.3 µM (inactive) in the assay on SK-MEL-2; > 100 µM (inactive) in the assay on TK-10.
As for `Cn1c(COC(=O)NC2CCCCC2)c(COC(=O)NC2CCCCC2)c2ccc3cc(Cl)c(Cl)cc3c21`, the GI50 with 786-0 is 6 µM (inactive); in the assay on A549 it was 48.1 µM (inactive); with ACHN, 14.3 µM (inactive); in the assay with COLO 205, 11.7 µM (inactive); in the assay with HCT-116 it was 7.43 µM (inactive); in the assay with HT-29, 27.5 µM (inactive). Further, the GI50 in the assay with IGROV-1 is 17 µM (inactive); in the assay with LOX IMVI, 13.6 µM (inactive); with MCF7 it was 4.03 µM (inactive); in the assay on NCI-H226, 34.2 µM (inactive); with NCI-H23, 15.6 µM (inactive); in the assay with NCI-H460, 4.41 µM (inactive). The GI50 in the assay with OVCAR-3 is 15.1 µM (inactive); in the assay with PC-3, 15.3 µM (inactive); in the assay on RXF 393, 6.12 µM (inactive); in the assay on SF-539, 14.8 µM (inactive); in the assay on SK-MEL-2, 14.1 µM (inactive); in the assay on TK-10 it was 16.7 µM (inactive).
With `COc1ccc2cc(-c3nc(N)nc(N4N=C(C)CC4(C)C)n3)c(=N)oc2c1`, the GI50 was 17.9 µM (inactive) with 786-0; 24.9 µM (inactive) with A549; 16.3 µM (inactive) in the assay with ACHN; 16.6 µM (inactive) in the assay on COLO 205; 19.1 µM (inactive) in the assay with HCT-116; 22.2 µM (inactive) in the assay on HOP-62. For the same compound, the GI50 in the assay on HT-29 was 17.6 µM (inactive); in the assay on IGROV-1, 14.8 µM (inactive); in the assay with MCF7, 16.7 µM (inactive); in the assay on NCI-H226, 15.3 µM (inactive); in the assay on NCI-H23, 16.5 µM (inactive); in the assay with NCI-H460, 17.4 µM (inactive). For the same compound, the GI50 in the assay on OVCAR-3 was 15.2 µM (inactive); in the assay with PC-3 it was 16.8 µM (inactive); in the assay with RPMI-8226, 16 µM (inactive); in the assay on RXF 393, 23.4 µM (inactive); in the assay with SF-539, 16 µM (inactive); in the assay on SK-MEL-2, 17.5 µM (inactive). For the same compound, the GI50 with TK-10 is 32.6 µM (inactive).
On to `C=CCOC(=O)CC[N+]1=CCC(c2ccccc2)(c2ccccc2)O1`, for which the GI50 with 786-0, with A549, in the assay on ACHN, in the assay with COLO 205, in the assay on HCT-116 and in the assay with HOP-62 was > 100 µM (inactive) throughout. Also, the GI50 in the assay with HT-29, in the assay with IGROV-1, with MCF7, in the assay on NCI-H226, in the assay on NCI-H23 and in the assay with NCI-H460 was > 100 µM (inactive) in each case. For the same compound, the GI50 in the assay on OVCAR-3, in the assay with PC-3, in the assay with RXF 393, in the assay on SF-539, with SK-MEL-2 and in the assay with TK-10 was > 100 µM (inactive) in each case.
Take `CC(C)(C)C(=O)OC(N)/C=C/c1ccccc1` (configuration not stated): the GI50 with 786-0, in the assay with A549, in the assay on ACHN, in the assay with COLO 205, in the assay on HCT-116 and in the assay on HOP-62 was > 100 µM (inactive) in each case. Also, the GI50 in the assay with HT-29, with IGROV-1, in the assay on MCF7, with NCI-H226, with NCI-H23 and in the assay on NCI-H460 was > 100 µM (inactive) each time. Also, the GI50 with OVCAR-3, in the assay on PC-3, in the assay with RPMI-8226, with RXF 393, in the assay on SF-539 and with SK-MEL-2 was > 100 µM (inactive) in each case.
With `Cc1cc(N(CCC#N)CCC#N)ccc1C(/N=N/c1ccc(Cl)cc1)=N\NC(=O)c1cc(Cl)ccc1O`, the GI50 was 30.6 µM (inactive) in the assay with 786-0; 31.3 µM (inactive) in the assay on A549; 32.4 µM (inactive) in the assay with ACHN; 47.9 µM (inactive) in the assay with COLO 205; 71.4 µM (inactive) in the assay on HCT-116; 20.5 µM (inactive) with HOP-62. For the same compound, the GI50 in the assay with HT-29 was 45.9 µM (inactive); in the assay on IGROV-1, 30.6 µM (inactive); in the assay on MCF7, 29.4 µM (inactive); with NCI-H226, 28.7 µM (inactive); in the assay with NCI-H23 it was 40.2 µM (inactive); in the assay on NCI-H460, 27.9 µM (inactive). Moreover, the GI50 in the assay on OVCAR-3 is 19.1 µM (inactive); with PC-3, 35.2 µM (inactive); in the assay on RPMI-8226 it was > 100 µM (inactive); with RXF 393, 22.2 µM (inactive); in the assay on SF-539 it was 25 µM (inactive); with SK-MEL-2, 67 µM (inactive). In addition, the GI50 with TK-10 was 30 µM (inactive).
For the compound `CC(C)C(C/C=C1/CC(CO)(COC(=O)CC(C(C)C)C(C)C)OC1=O)C(C)C` (configuration not stated), the GI50 with 786-0 was 5.61 µM (inactive); in the assay on A549, 0.298 µM (active); with ACHN, 1.79 µM (inactive); with COLO 205 it was 0.0811 µM (active); in the assay on HCT-116 it was 16.2 µM (inactive); in the assay on HOP-62, 1.34 µM (inactive). For the same compound, the GI50 with HT-29 is 16.3 µM (inactive); with IGROV-1, 17.1 µM (inactive); with LOX IMVI, 5.27 µM (inactive); with MCF7, 13.6 µM (inactive); in the assay with NCI-H226, 8.93 µM (inactive); in the assay on NCI-H23 it was 14.7 µM (inactive). The GI50 is 2.44 µM (inactive) in the assay with NCI-H460; 13.8 µM (inactive) in the assay with OVCAR-3; 4.85 µM (inactive) in the assay on PC-3; 11.1 µM (inactive) in the assay with RXF 393; 11.2 µM (inactive) in the assay with SF-539; 15.2 µM (inactive) in the assay with SK-MEL-2. The GI50 in the assay on TK-10 was 2.08 µM (inactive).
For the compound `CO[C@H]1C[C@H](n2cc(C)c(=O)[nH]c2=O)O[C@@H]1CO`, the GI50 with 786-0, in the assay on A549, with ACHN, in the assay with COLO 205, in the assay on HCT-116 and in the assay on HOP-62 was > 100 µM (inactive) throughout. The GI50 with HT-29, in the assay with IGROV-1, with LOX IMVI, in the assay with MCF7, with NCI-H226 and in the assay with NCI-H23 was > 100 µM (inactive) in each case. Further, the GI50 in the assay on NCI-H460, in the assay on OVCAR-3, in the assay on PC-3, in the assay with RPMI-8226, with RXF 393 and in the assay with SF-539 was > 100 µM (inactive) throughout. For the same compound, the GI50 with TK-10 is > 100 µM (inactive).

Values taken from ChEMBL document CHEMBL1201862, “PubChem BioAssay data set” (2004).
